# Laboratory results as given in US7531195B2, “Schisandrin B preparation” (priority 2005, dated 2009).
# What was measured:
# H9c2 cells [1] = test: Cellular GSH level in H9c2 cells, time course, with or without xanthine/xanthine oxidase (X/XO) challenge; assay type: cell-based, rat; settings: 6.25 μM
# Description: (§1) H9c2 cells, a permanent cell line derived from cardiac myoblasts of rat embryo, have early been characterized as a suitable model of myocardial cells [Hescheler et al. 1991]. H9c2 cells were cultured as monolayers in Dulbecco's modified Eagle's medium (GIBCO BRL) supplemented with 10% (v/v) fetal bovine serum. The medium contained glucose (4.5 g/L) and glutamine (4.5 mM), supplemented with NaHCO3 (17 mM), penicillin (100 IU/ml), and streptomycin (100 μg/ml). Cells were grown under an atmosphere of 5% CO2 in air at 37° C. The medium was replaced by fresh medium every 2 or 3 days. A stock of cells was grown in a 75 cm culture flask and split before confluence at a subcultivation ratio of 1:10. Cells used for experiments were seeded at a density of 3.75×10^4 cells/well on a 12-well culture plate, and the cells were grown for 24 h to about 80% confluence prior to drug treatment.
# (§2) Cultured H9c2 cells were treated with (−) Schisandrin B, (+) Schisandrin B or (±) Schisandrin B (dissolved in DMSO) at 6.25 μM (0.2% DMSO final concentration) for increasing periods of time. Control cells were given the vehicle (i.e. DMSO) only. Immediately following the drug or vehicle pretreatment, the cells were challenged with a mixture of xanthine (X) (0.1 mM) and xanthine oxidase (XO) (0.4 U/ml) for 4 h. The control cells were treated with the medium only. After the X/XO challenge, the medium was taken for the measurement of LDH activity, a biochemical index of cellular injury.
# (§3) The cells were washed twice with 0.5 ml cold phosphate-buffered saline (PBS), An aliquot (200 μl) of 3% sulfonsalicyclic acid was then added, and the mixture was incubate at 4° C. for 10 min. After centrifuging at 300 g for 15 min at 4° C., the supernatant was used for GSH measurement by an enzymatic method of Griffith (1980).
# H9c2 cells [2] = test: Xanthine/xanthine oxidase-induced cytotoxicity (LDH leakage) in H9c2 cells; assay type: cell-based, rat; settings: X/XO challenge, 6.25 μM
# Description: as §1, §2
# H9c2 cells [3] = test: Menadione-induced toxicity (LDH) in H9c2 cells; assay type: cell-based, rat
# Description: as §1
# (§4) Cultured H9c2 cells were treated with (−) Schisandrin B, (+) Schisandrin B or (±) Schisandrin B (dissolved in DMSO) at 6.25 μM (0.2% DMSO final concentration) for 16 h. Control cells were given the vehicle (i.e. DMSO) only. Immediately following the drug or vehicle pretreatment, the cells were challenged with menadione (dissolved in ethanol) at 12.5 μM (0.2% ethanol final concentration) for 4 h. The control cells were treated with the medium containing 0.2% ethanol only. After the menadione challenge, the medium was taken for the measurement of LDH activity, an biochemical index of cell injury.
# H9c2 cells [4] = test: Cellular GSH level in H9c2 cells with or without menadione challenge; assay type: cell-based, rat
# Description: as §1, §4, §3
# Hsp25 = Hsp25 expression in H9c2 cells (Western blot); assay type: cell-based, rat; settings: 6.25 μM
# Description: as §1
# (§5) Cultured H9c2 cells were treated with (−) Schisandrin B, (+) Schisandrin B or (±) Schisandrin B (dissolved in DMSO) at 6.25 μM (0.2% DMSO final concentration) for increasing periods of time. Control cells were given the vehicle (i.e. DMSO) only.
# (§6) Immediately following the drug treatment, the cells were washed twice with 0.5 ml cold PBS and treated with 100 μl lysis buffer containing 20 mM Tris HCl, 3 mM EGTA, 1% Triton X-100, 10% glycerol and 2 mM dithiothreitol, pH 7.5, with freshly added protease inhibitors (1 mM phenylmethylsulfonyl fluoride, 0.1 mM benzamide, 5 μg/ml leupeptin, 5 μg aproptinin and 5 μg/ml pepstain A). The mixture was incubated at 4° C. for 15 min with constant shaking. Then the cells were scraped off from the plate, and the extract was transferred to a microcentrifuge tube for centrifugation at 2,400 g for 3 min at 4° C. The resultant supernatant was used for Hsp analysis. Hsp25 and Hsp70 levels was estimated by Western blot analysis using specific antibodies (anti-Hsp25, catalog #SPA-801; anti-Hsp70, catalog #SPA-812) from StressGen (Vancouver, BC, Canada) following SDS-PAGE analysis cell lysates, using a separating gel of 10% acrylamide as described in Ip et. al. [2001]. Hsp25/27 and Hsp70 (human recombinant proteins from StressGen) and actin (bovine muscle from Sigma) were used as markers for reference. […] All immuno-blots were analyzed by densitometry, and the amounts (arbitrary units) of Hsp were normalized with reference to actin levels (arbitrary units) in the sample.
# Hsp70 = Hsp70 expression in H9c2 cells (Western blot); assay type: cell-based, rat; settings: 6.25 μM
# Description: as §1, §5, §6
# H9c2 cells [5] = test: Cytotoxicity test in H9c2 cells (trypan blue, LDH leakage, WST); assay type: cell-based; settings: 100 μM; 24 h
# Description: as §1
# Cultured H9c2 cells were treated with (−) Schisandrin B or (+) Schisandrin B (dissolved in DMSO) at 6.25 μM (0.2% DMSO final concentration) at increasing concentrations or at increasing concentrations for 24 h. Control cells were given the vehicle (i.e. DMSO) only.
# Cell viability was evaluated by trypan blue staining (dead cells) and LDH leakage as well as WST staining (viable cells).
# [6] = X/XO challenge, 16 h post-dosing
# [7] = 0 h post-dosing (unpretreated control)
# [8] = MENADIONE 12.5 μM for 4 h, drug 6.25 μM for 16 h
# [9] = NON-MENADIONE, 6.25 μM for 16 h
smiles,measurement,setting,value
"COc1cc2c(c(OC)c1OC)-c1c(cc3c(c1OC)OCO3)CC(C)C(C)C2 (single isomer, unassigned; (+)) [(+) Sch B, (+) Schisandrin B]",GSH Level,"H9c2 cells [1]; NON-X/XO, 0 h post-dosing (unpretreated control)",34.2 ± 2.41 nmol/mg protein
same,GSH Level,"H9c2 cells [1]; NON-X/XO, 4 h post-dosing",38.3 ± 1.48 nmol/mg protein
same,GSH Level,"H9c2 cells [1]; NON-X/XO, 8 h post-dosing",46.3 ± 0.85 nmol/mg protein
same,GSH Level,"H9c2 cells [1]; NON-X/XO, 16 h post-dosing",73.9 ± 1.38 nmol/mg protein
same,"GSH Level, percent increase vs unpretreated control (0 h)","H9c2 cells [1]; NON-X/XO, 16 h post-dosing",(117%)
same,GSH Level,"H9c2 cells [1]; NON-X/XO, 24 h post-dosing",66.7 ± 1.83 nmol/mg protein
same,GSH Level,"H9c2 cells [1]; NON-X/XO, 48 h post-dosing",59.0 ± 2.94 nmol/mg protein
same,GSH Level,"H9c2 cells [1]; X/XO challenge, 0 h post-dosing (unpretreated control)",13.9 ± 1.68 nmol/mg protein
same,GSH Level,"H9c2 cells [1]; X/XO challenge, 4 h post-dosing",15.4 ± 0.55 nmol/mg protein
same,GSH Level,"H9c2 cells [1]; X/XO challenge, 8 h post-dosing",16.8 ± 0.85 nmol/mg protein
same,GSH Level,H9c2 cells [1]; [6],18.4 ± 0.33 nmol/mg protein
same,"GSH Level, percent increase vs unpretreated control (0 h)",H9c2 cells [1]; [6],(32%)
same,GSH Level,"H9c2 cells [1]; X/XO challenge, 24 h post-dosing",17.2 ± 0.36 nmol/mg protein
same,GSH Level,"H9c2 cells [1]; X/XO challenge, 48 h post-dosing",14.1 ± 0.53 nmol/mg protein
same,LDH Leakage,H9c2 cells [2]; [7],35.7 ± 0.24 U/L
same,LDH Leakage,H9c2 cells [2]; 4 h post-dosing,31.3 ± 0.71 U/L
same,LDH Leakage,H9c2 cells [2]; 8 h post-dosing,25.2 ± 0.45 U/L
same,LDH Leakage,H9c2 cells [2]; 16 h post-dosing,19.4 ± 0.29 U/L
same,"LDH Leakage, percent protection vs unpretreated control (0 h)",H9c2 cells [2]; 16 h post-dosing,(62%)
same,LDH Leakage,H9c2 cells [2]; 24 h post-dosing,22.4 ± 1.07 U/L
same,LDH Leakage,H9c2 cells [2]; 48 h post-dosing,33.5 ± 0.17 U/L
same,LDH,H9c2 cells [3]; [8],24.7 ± 0.56 U/ml
same,"LDH, percent protection vs menadione control",H9c2 cells [3]; [8],(30%)
same,LDH,H9c2 cells [3]; [9],13.5 ± 0.08 U/ml
same,GSH Level,H9c2 cells [4]; [8],24.5 ± 2.03 nmol/mg protein
same,"GSH Level, percent increase vs menadione control",H9c2 cells [4]; [8],(55%)
same,GSH Level,H9c2 cells [4]; [9],48.4 ± 0.60 nmol/mg protein
same,"GSH Level, percent increase vs non-menadione control",H9c2 cells [4]; [9],(41%)
same,Hsp 25 Level,Hsp25; [7],1722 ± 99 AU
same,Hsp 25 Level,Hsp25; 8 h post-dosing,1832 ± 105 AU
same,Hsp 25 Level,Hsp25; 16 h post-dosing,1498 ± 86 AU
same,Hsp 25 Level,Hsp25; 24 h post-dosing,2168 ± 125 AU
same,"Hsp 25 Level, percent increase vs unpretreated control (0 h)",Hsp25; 24 h post-dosing,(26%)
same,Hsp 25 Level,Hsp25; 48 h post-dosing,1673 ± 97 AU
same,Hsp 70 Level,Hsp70; [7],465 ± 14.3 AU
same,Hsp 70 Level,Hsp70; 8 h post-dosing,576 ± 20.3 AU
same,Hsp 70 Level,Hsp70; 16 h post-dosing,657 ± 13.4 AU
same,Hsp 70 Level,Hsp70; 24 h post-dosing,834 ± 48.1 AU
same,"Hsp 70 Level, percent increase vs unpretreated control (0 h)",Hsp70; 24 h post-dosing,(79%)
same,Hsp 70 Level,Hsp70; 48 h post-dosing,656 ± 37.8 AU
same,percentage of cell death,H9c2 cells [5],11%
